“And” between values parts separate entries of the source, which are not always exact repeats. Identical values can stand only once. Like-named read-outs stand apart in the source and are kept apart here. Marks after values point to notes of the source that are not given here.
Tests used:
[1] = Stern-Volmer photoluminescence quenching of photosensitizers by PPGs-X; type: physicochemical
Procedure: The Stern-Volmer quenching plots experiment (ksv): photoluminescence of photosensitizers (PtTNP, PdTPBP, PtOEP, and Ir(ppy)3) in the presence of different concentrations of PPGs (BDP, perylene, anthracene and coumarin). The mixed solutions were degassed for at least 15 min with Ar in toluene. The ksv constants were calculated with eq 1, where 1o and It stand for photoluminescence intensity of photosensitizer in the absence of PPGs-X and the photoluminescence intensity of photosensitizer in the presence PPGs-X. Q is the concentration of PPGs-X. Biomolecular quenching constants (kq) were calculated by eq2. The Tr is the phosphorescence lifetime of photosensitizer in argon.

[2] = Photophysical parameters of Sen and PPGs (UV-vis absorption, emission, energy levels); type: physicochemical; parameters: λabs maximum absorption wavelength / λem maximum emission wavelength: unit not given here; details: for 2 × T1 − S1 / S1 singlet excited state: PPGs; for S1 singlet excited state: from maximum fluorescence emission; for λabs maximum absorption wavelength / λem maximum emission wavelength / ξ molar extinction coefficient: in toluene, 10 μM
Procedure: Characterization: ^1H NMR spectra were recorded with a Bruker 500 MHz spectrometer. UV-Vis spectra were recorded on an Agilent Cary-5 spectrophotometer. Steady-state fluorescence spectra were measured on a HITACHI F-7000 spectrometer. […] The sample for TEM measurement was prepared by dropping the solution onto a carbon-coated copper grid following negative staining with 2.0% (w/v) phosphotungstic acid. The particle size and size distribution were measured by using dynamic light scattering (DLS) on a Malvern Nano-ZS particle size analyzer, excitation wavelength 532 nm. All samples in the Stern-Volmer quenching plots experiments were deaerated with argon for ca. 15 min before measurement and the gas flow was maintained during the measurements. For the TTA upconversion spectra measurement, the diode pumped solid-state laser (650 nm, continues wave, CW, Hi-Teach company, China) was used as the excitation light source and a modified spectrofluorometer was used to record the upconversion spectra. For the prodrug photolytic experiment, an All LED (Mightex Company) was used as the excitation light source.
From the absorption and emission spectra of Sen and PPGs, the triplet and singlet energy levels of PPG and Sen can be calculated. The maximum emission wavelength of phosphorescence is the triplet excited state energy level (T1) of the Sen. The maximum emission wavelength of fluorescence is the singlet excited state energy level (S1) of the PPGs. Moreover, according to the literature, we know the triplet excited energy levels of PPGs. The detail information is always in […]

[3] = PPGs, from the literature, cited from earlier work
[4] = Photocleavage quantum yield / photolytic quantum efficiency calculation; details: for ε1 × Φp: ε (PPGs) × Φp (PPGs); ηp (direct): direct short wavelength illumination
From the text: We compared photolytic quantum efficiency of the widely used PPG of Cou by using the UCNPs as phototransducer.

[5] = TTA upconversion quantum yield; type: physicochemical
Procedure: The upconversion quantum yields (ΦUC): The upconversion quantum yields were calculated with the eq 3, where ΦUC and Φstd stand for upconversion luminescence quantum yield of sample TTA-UC and fluorescence quantum yield of reference compounds, respectively. Aunk and Astd stand for absorbance of the TTA-UC and reference compound, respectively. Iunk and Istd stand for integrated upconversion luminescence intensity of the TTA-UC and fluorescence intensity of reference compounds, respectively. ηunk and μstd stand for the refractive index of water. The equation is multiplied by a factor of 2 to make the maximum quantum yield of two unified emitters.
The upconversion experiments were deaerated with argon for ca. 15 min before measurement and the argon gas flow was kept during the measurement.

[6] = Photolytic molecule experiment: TTAP photolytic reaction in solution under LED, HPLC yield; type: physicochemical
Procedure: Photolytic molecule experiment: The NIR LED (720 nm), far red LED (650 nm), green LED (530 nm), blue LED (476 nm) and deep blue (455 nm) were used for photolytic reactions. […] Then, the solution was excited with a LED (20 mW/cm^2) at 37° C. After the photolytic reaction, the raw product was dried and re-dissolved in CH3CN/H2O=(2/1, v/v) and HPLC was used to analyze the yield of product.

Structure (SMILES): CC(=O)OCc1c2ccccc2cc2ccccc12 [compound 2]
- quenching of the photoluminescence of PtOEP [1]: significant quenching
- ksv (bimolecular quenching constant) ([1]; PtOEP as sensitizer): 2.43 × 10^9 j M^−1S^−1
- ksv Stern-Volmer quenching constant ([1]; PtOEP as sensitizer): 219000 J/M
- 2 × T1 − S1 [2]: 0.53 eV
- S1 singlet excited state [2]: 3.02 eV
- λabs maximum absorption wavelength [2]: 366
- λem maximum emission wavelength [2]: 411
- ξ molar extinction coefficient [2]: 1.1 10^4 M^−1 cm^−1
- T1 triplet excited state ([3]; listed as An): 1.77 ^n eV and 1.77 eV
- increase of ηp (TTAP) over ηp (direct) ([4]; PtOEP): 638%
- ε2 × Φp: ε (Sen) × Φp (PPGs); ηp (TTAP) ([4]; PtOEP as sensitizer): 6230 ^j
- ε2 × Φp: ε (Sen) × Φp (PPGs); ηp (TTAP) ([4]; PtOEP as sensitizer, listed as An): 6230
- ε1 × Φp: ε (PPGs) × Φp (PPGs); ηp (direct) [4]: 979
- ε1 × Φp: ε (PPGs) × Φp (PPGs); ηp (direct) ([4]; listed as An): 976
- upconversion quantum yield ([5]; paired with PtOEP): 8.7%
- Yield (HPLC) of photolytic reaction ([6]; PtOEP, dark, argon, 1 h): No reaction
- photolytic yield ([6]; PtOEP, green LED light (20 mW/cm^2, 532 nm)): 83%
- Yield (HPLC) of photolytic reaction ([6]; PtOEP, light, air, 1 h): Trace
- Yield (HPLC) of photolytic reaction ([6]; PtOEP, light, argon, 1 h): 83.2%
- Yield (HPLC) of photolytic reaction ([6]; compound only (no PtOEP), green light, argon, 1 h): No reaction

Structure (SMILES): CC(=O)OCc1ccc2c3cccc4cccc(c5cccc1c52)c43 [compound 8]
- quenching of the photoluminescence of PdTPBP ([1]; PdTPBP): obvious quenching effects
- ksv (bimolecular quenching constant) ([1]; PdTPBP as sensitizer): 1.09 × 10^9 g M^−1S^−1
- ksv Stern-Volmer quenching constant ([1]; PdTPBP as sensitizer): 243000 g/M
- quenching of the photoluminescence of PtOEP [1]: significant quenching
- ksv (bimolecular quenching constant) ([1]; PtOEP as sensitizer): 2.9 × 10^9 j M^−1S^−1
- ksv Stern-Volmer quenching constant ([1]; PtOEP as sensitizer): 262000 J/M
- quenching of the photoluminescence of PtTNP ([1]; PtTNP): quenching effect
- 2 × T1 − S1 [2]: 0.26 eV
- S1 singlet excited state [2]: 2.78 eV
- λabs maximum absorption wavelength [2]: 440
- λem maximum emission wavelength [2]: 445
- ξ molar extinction coefficient [2]: 4.0 10^4 M^−1 cm^−1
- T1 triplet excited state ([3]; listed as Py): 1.52 ^m eV and 1.52 eV
- increase of ηp (TTAP) over ηp (direct) ([4]; PdTPBP): 282%
- ε2 × Φp: ε (Sen) × Φp (PPGs); ηp (TTAP) ([4]; PdTPBP as sensitizer): 10230 ^g
- ε2 × Φp: ε (Sen) × Φp (PPGs); ηp (TTAP) ([4]; PdTPBP as sensitizer, listed as Py): 10230
- increase of ηp (TTAP) over ηp (direct) ([4]; PtOEP): 179%
- ε2 × Φp: ε (Sen) × Φp (PPGs); ηp (TTAP) ([4]; PtOEP as sensitizer): 6510 ^j
- ε2 × Φp: ε (Sen) × Φp (PPGs); ηp (TTAP) ([4]; PtOEP as sensitizer, listed as Py): 6510
- increase of ηp (TTAP) over ηp (direct) ([4]; PtTNP): 342%
- ε2 × Φp: ε (Sen) × Φp (PPGs); ηp (TTAP) ([4]; PtTNP as photosensitizer): 12400^h
- ε2 × Φp: ε (Sen) × Φp (PPGs); ηp (TTAP) ([4]; PtTNP as photosensitizer, listed as Py): 12400
- ε1 × Φp: ε (PPGs) × Φp (PPGs); ηp (direct) [4]: 3627
- upconversion quantum yield ([5]; paired with PdTPBP): 5.8%
- upconversion quantum yield ([5]; paired with PtOEP): 9.5%
- upconversion quantum yield ([5]; paired with PtTNP): 0.05%
- photolytic yield [6]: 70%
- Yield (HPLC) of photolytic reaction ([6]; PdTPBP, air, room light, 60 min): No reaction
- Yield (HPLC) of photolytic reaction ([6]; PdTPBP, argon, room light, 60 min): No reaction
- Yield (HPLC) of photolytic reaction ([6]; PdTPBP, dark, argon, 1 h): No reaction
- photolytic yield ([6]; PdTPBP, far-red LED light (20 mW/cm^2, 650 nm)): 87% and 87.1%
- Yield (HPLC) of photolytic reaction ([6]; PdTPBP, light, air, 1 h): No reaction
- Yield (HPLC) of photolytic reaction ([6]; PdTPBP, light, argon, 1 h): 87.1%
- photolytic yield ([6]; PtTNP, NIR LED light (20 mW/cm^2, 720 nm, 1 h)): 14.7%
- Yield (HPLC) of photolytic reaction ([6]; PtTNP, dark, argon, 1 h): No reaction
- Yield (HPLC) of photolytic reaction ([6]; PtTNP, light, air, 1 h): No reaction
- Yield (HPLC) of photolytic reaction ([6]; PtTNP, light, argon, 1 h): 14.7%
- Yield (HPLC) of photolytic reaction ([6]; compound only (no PdTPBP), far red light, argon, 1 h): No reaction
- Yield (HPLC) of photolytic reaction ([6]; compound only (no PtTNP), NIR light, argon, 1 h): No reaction
- Yield (HPLC) of photolytic reaction ([6]; compound only, air, blue light (445 nm, 20 mW/cm^2), 60 min): 59%
- Yield (HPLC) of photolytic reaction ([6]; compound only, air, dark, 60 min): No reaction
- Yield (HPLC) of photolytic reaction ([6]; compound only, air, room light, 60 min): No reaction
